Source: PMC10054552, “Phototoxic Potential of Different DNA Intercalators for Skin Cancer Therapy: In Vitro Screening” (International Journal of Molecular Sciences, 2023)
Like-named read-outs stand apart in the source and are kept apart here.

Columns and labels:
MET1 cells [1] = assay: Phototoxicity assay in MET1 cells (irradiation 2.5 J/cm², resazurin); format: cell-based, human; conditions: for phototoxicity in the investigated range: 1.25-40 µM, irradiated vs dark
Description: (§1) The […] SCC cell line (human squamous cell carcinoma) was obtained from Ximbio (London, UK), HaCaT (immortalized human keratinocytes cell line) was obtained from Addexbio (San Diego, CA, USA) and WM983b (human metastatic melanoma cell line) was obtained from Rockland (Pottstown, PA, USA). […] Cells were cultivated in an incubator (Sanyo MCO-19AIC-UV) at 37 °C in a 5% CO2 humidified atmosphere. […] The plates were incubated for 24 h, followed by washing with PBS supplemented with calcium and magnesium. Afterwards, complete culture medium without phenol red was added, and the plates were irradiated from above and submitted to a dose of 2.5 J/cm2 of irradiation emitted by different wavelength light sources coupled with a homemade irradiation system created in our laboratory. […] This experiment was performed in an incubator that was able to keep plates in a dark environment; therefore, the dark control plates were protected from any light source, as well as the others, with the exception of the irradiation that each one was submitted to. Plates were incubated for another 24 h, and finally, the resazurin assay was performed as previously described in Section 3.3. For the phototoxicity study using WM983b cells, plates were prepared at a cell density of 40,000 cells/cm2, and cells were treated with MB and AO only.

HaCaT cells = assay: Cytotoxicity (resazurin cell viability) in HaCaT cells; format: cell-based, human
Description: (§2) The MET1 SCC cell line (human squamous cell carcinoma) was obtained from Ximbio (London, UK), HaCaT (immortalized human keratinocytes cell line) was obtained from Addexbio (San Diego, CA, USA) and WM983b (human metastatic melanoma cell line) was obtained from Rockland (Pottstown, PA, USA). Cells were maintained in Dulbecco’s Modified Eagle Medium (DMEM) supplemented with 10% (v/v) fetal bovine serum (FBS) for MET1 and HaCaT and 5% (v/v) for WM983b cells, and Pen–Strep (penicillin 100 U/mL and streptomycin 100 µg/mL). Cells were cultivated in an incubator (Sanyo MCO-19AIC-UV) at 37 °C in a 5% CO2 humidified atmosphere.
(§3) First, 96-well plates were seeded with HaCaT and MET1 cells at a density of 20,000 cells/cm² and incubated for 24 h. After that period, the culture medium was replaced by culture medium containing different compounds: MB, AO, GV, QT, CUR, EGCG, PHE, NEO and BIPY. The compounds were diluted in culture medium using a range of concentrations of each compound from 1.25 µM to 320 µM (in quadruplicate). The medium was aspirated from the 96-well plate and replaced by the samples diluted in medium. Cells cultured with complete medium and cells cultured with medium supplemented with 0.2% (v/v) or 10% (v/v) of DMSO were used as negative (NC), solvent (SC) and positive controls (PC), respectively. The plates were incubated for 24 and 48 h, followed by evaluation of cell viability using a colorimetric assay. Cells containing samples were washed with PBS supplemented with calcium and magnesium; then, resazurin solution diluted in DMEM at 0.02 mg/mL was added. The medium containing resazurin was also dispensed in wells without cells, which were used as references. After 3 h of incubation, the absorbance was measured in a microplate reader (ELX800UV, Biotek Instruments) at wavelengths of 570 nm and 600 nm. The corrected absorbance was proportional to cell viability. Propagation of uncertainties was used to calculate the combined standard uncertainty. For the cytotoxicity study using WM983b cells, plates were seeded at a density of 40,000 cells/cm², and cells were treated only with MB and AO.

MET1 cells [2] = assay: Cytotoxicity (resazurin cell viability) in MET1 cells; format: cell-based, human
Description: as §2, §3

[3] = Phototoxicity assay in MET1 cells (irradiation 2.5 J/cm², resazurin); format: cell-based, human; conditions: human, MET1 squamous cell carcinoma cells, MET1 cells, dark
Description: as §1

WM983b cells [4] = assay: Phototoxicity assay in WM983b cells (irradiation 2.5 J/cm², resazurin); format: cell-based; conditions: Homo sapiens, light or radiation study, treated 24 h
Description: as §2
For the phototoxicity studies, 96-well plates were seeded with MET1 cells at a density of 20,000 cells/cm², incubated overnight and treated for 24 h with MB, AO, GV, QT, CUR, EGCG, PHE, NEO and BIPY diluted in culture medium in a concentration range of 1.25 µM to 40 µM (in sextuplicate). […] Cells cultured with complete medium and cells cultured with medium supplemented with 0.2% (v/v) or 10% (v/v) of DMSO were used as negative (NC), solvent (SC) and positive control (PC), respectively. The plates were incubated for 24 h, followed by washing with PBS supplemented with calcium and magnesium. Afterwards, complete culture medium without phenol red was added, and the plates were irradiated from above and submitted to a dose of 2.5 J/cm² of irradiation emitted by different wavelength light sources coupled with a homemade irradiation system created in our laboratory. These light sources consisted of an equivalent 26 cm UV tubular lamp (254 nm) (Phillips TUV PLS 9W/2PHg) and a tricolor LED lamp (Led Grow Light Bulb E26/E27) with intensity peaks at 457 nm (blue light), 583 nm (yellow light) and 640 nm (red light) provided by 18, 18 and 28 LEDs, respectively, with dimensions of 3 × 3 mm^2. The irradiance values of light at 254, 457, 583 and 640 nm wavelengths were of 16.7, 55, 45 and 25 W/m^2, respectively. This experiment was performed in an incubator that was able to keep plates in a dark environment; therefore, the dark control plates were protected from any light source, as well as the others, with the exception of the irradiation that each one was submitted to. Plates were incubated for another 24 h, and finally, the resazurin assay was performed as previously described in Section 3.3. For the phototoxicity study using WM983b cells, plates were prepared at a cell density of 40,000 cells/cm², and cells were treated with MB and AO only.

WM983b cells [5] = assay: Cytotoxicity (resazurin cell viability) in WM983b cells; format: cell-based, human; conditions: for IC50: Homo sapiens, 1.25-320 µM
Description: as §2, §3

[6] = Homo sapiens, HaCaT cells, 24 h exposure, 1.25-320 µM, read-out: IC50 HaCaT Cells 24 h
[7] = Homo sapiens, HaCaT cells, 48 h exposure, 1.25-320 µM, read-out: IC50 HaCaT Cells 48 h
[8] = Homo sapiens, MET-1, MET1 cells, 24 h exposure, 1.25-320 µM, read-out: IC50 MET1 Cells 24 h
[9] = Homo sapiens, MET-1, MET1 cells, 48 h exposure, 1.25-320 µM, read-out: IC50 MET1 Cells 48 h
[10] = Homo sapiens, MET-1, light or radiation study, MET1 cells, light condition not stated, read-out: IC50 phototoxicity results (summary statement)
[11] = Homo sapiens, MET-1, light or radiation study, MET1 cells, treated 24 h, 254 nm light, 2.5 J/cm², read-out: IC50 254 nm
[12] = Homo sapiens, MET-1, light or radiation study, MET1 cells, treated 24 h, 457 nm light, 2.5 J/cm², read-out: IC50 457 nm
[13] = Homo sapiens, MET-1, light or radiation study, MET1 cells, treated 24 h, 583 nm light, 2.5 J/cm², read-out: IC50 583 nm
[14] = Homo sapiens, MET-1, light or radiation study, MET1 cells, treated 24 h, 640 nm light, 2.5 J/cm², read-out: IC50 640 nm
[15] = Homo sapiens, MET-1, light or radiation study, MET1 cells, treated 24 h, dark control (no irradiation), read-out: IC50 Dark
[16] = Homo sapiens, MET-1, MET1 cells, exposure time not given, read-out: IC50 in MET1 cells (summary statement)

| Compound | IC50 (HaCaT cells; [6]) [µM] | IC50 (HaCaT cells; [7]) [µM] | IC50 (MET1 cells [2]; [8]) [µM] | IC50 (MET1 cells [2]; [9]) [µM] | IC50 (MET1 cells [1]; [11]) [µM] | IC50 (MET1 cells [1]; [12]) [µM] | IC50 (MET1 cells [1]; [13]) [µM] | IC50 (MET1 cells [1]; [14]) [µM] | IC50 (MET1 cells [1]; [15]) [µM] | IC50 (MET1 cells [2]; [16]) [µM] | other results |
| --- | --- | --- | --- | --- | --- | --- | --- | --- | --- | --- | --- |
| c1ccc(-c2ccccn2)nc1 [2,2′-bipyridyl] |  |  |  |  |  |  |  |  |  |  | IC50 (MET1 cells [1]; Homo sapiens, MET-1, light or radiation study, 24 h, read-out: IC50 254 nm): 225 µM; IC50 (MET1 cells [1]; Homo sapiens, MET-1, light or radiation study, 24 h, read-out: IC50 457 nm): 171 µM; IC50 (MET1 cells [1]; Homo sapiens, MET-1, light or radiation study, 24 h, read-out: IC50 583 nm): 190 µM; IC50 (MET1 cells [1]; Homo sapiens, MET-1, light or radiation study, 24 h, read-out: IC50 640 nm): 202 µM; IC50 (MET1 cells [1]; Homo sapiens, MET-1, light or radiation study, 24 h, read-out: IC50 Dark): 228 µM; IC50 (MET1 cells [1]; Homo sapiens, MET-1, light or radiation study, read-out: IC50 phototoxicity results (summary statement)): > 100 µM; phototoxicity in the investigated range (MET1 cells [1]; MET1 cells): did not show phototoxicity; IC50 (HaCaT cells; Homo sapiens, HaCaT, 24 h, read-out: IC50 HaCaT Cells 24 h): 125 µM; IC50 (HaCaT cells; Homo sapiens, HaCaT, 48 h, read-out: IC50 HaCaT Cells 48 h): 57.8 µM; IC50 (MET1 cells [2]; Homo sapiens, MET-1, 24 h, read-out: IC50 MET1 Cells 24 h): 275 µM; IC50 (MET1 cells [2]; Homo sapiens, MET-1, 48 h, read-out: IC50 MET1 Cells 48 h): 97.2 µM; IC50 (MET1 cells [2]; Homo sapiens, MET-1, read-out: IC50 in MET1 cells (summary statement)): > 100 µM |
| Cc1ccc2ccc3ccc(C)nc3c2n1 [Neocuproine, neocuproine] | > 320 | 159 | > 320 | > 320 |  |  |  |  |  |  | viability at 24 h ([3]; 1.25-40 µM, read-out: cell viability under dark conditions): < 70% |
| O=c1c(O)c(-c2ccc(O)c(O)c2)oc2cc(O)cc(O)c12 [Quercetin, quercetin] | > 320 | 315 | > 320 | 110 | 205 | 288 | 269 | 340 | 230 | > 100 | IC50 (MET1 cells [1]; [10]): > 100 µM |
| O=C(O[C@@H]1Cc2c(O)cc(O)cc2O[C@@H]1c1cc(O)c(O)c(O)c1)c1cc(O)c(O)c(O)c1 [Epigallocatechin gallate, epigallocatechin gallate] |  |  |  |  |  |  |  |  |  |  | phototoxicity in the investigated range (MET1 cells [1]; MET1 cells): no phototoxicity was observed; IC50 (MET1 cells [1]; MET1 cells, light condition not stated, read-out: IC50 phototoxicity results (summary statement)): > 100 µM; IC50 (MET1 cells [1]; MET1 cells, treated 24 h, 254 nm light, 2.5 J/cm², read-out: IC50 254 nm): 193 µM; IC50 (MET1 cells [1]; MET1 cells, treated 24 h, 457 nm light, 2.5 J/cm², read-out: IC50 457 nm): 222 µM; IC50 (MET1 cells [1]; MET1 cells, treated 24 h, 583 nm light, 2.5 J/cm², read-out: IC50 583 nm): 211 µM; IC50 (MET1 cells [1]; MET1 cells, treated 24 h, 640 nm light, 2.5 J/cm², read-out: IC50 640 nm): 224 µM; IC50 (MET1 cells [1]; MET1 cells, treated 24 h, dark control (no irradiation), read-out: IC50 Dark): 191 µM; IC50 (HaCaT cells; HaCaT cells, 24 h exposure, 1.25-320 µM, read-out: IC50 HaCaT Cells 24 h): 211 µM; IC50 (HaCaT cells; HaCaT cells, 48 h exposure, 1.25-320 µM, read-out: IC50 HaCaT Cells 48 h): 174 µM; IC50 (MET1 cells [2]; MET1 cells, 24 h exposure, 1.25-320 µM, read-out: IC50 MET1 Cells 24 h): 174 µM; IC50 (MET1 cells [2]; MET1 cells, 48 h exposure, 1.25-320 µM, read-out: IC50 MET1 Cells 48 h): 136 µM |
| c1cnc2c(c1)ccc1cccnc12 [1,10-phenanthroline] | 35.2 | 5.9 | 124 | 7.7 | 6 | 4.9 | 6.8 | 4.8 | 7.4 | > 100 |  |
| CN(C)c1ccc(C(=C2C=CC(=[N+](C)C)C=C2)c2ccc(N(C)C)cc2)cc1 [Gentian violet, gentian violet] | 2.8 | 0.9 | 3.9 | 1.2 | 1.5 | 2.7 | 1 | 1.8 | 2.9 |  | viability at 24 h, 1.25 µM ([3]; 1.25 µM, read-out: relative cell viability, dark condition, lowest concentration): < 60% |
| CN(C)c1ccc2nc3ccc(=[N+](C)C)cc-3sc2c1 [Methylene blue, methylene blue] | 11.6 | 7.1 | 14.2 | 4.2 | 4.3 | 6.2 | 5 | 3.8 | 10.9 |  | IC50 (WM983b cells [4]; 640 nm light, 2.5 J/cm², read-out: IC50 irradiated samples (640 nm)): 2.1 µM; IC50 (WM983b cells [4]; without irradiation, read-out: IC50 non-irradiated samples): 7.3 µM; concentration above which the relative cell population falls below 70% (WM983b cells [5]; 24 or 48 h): above 10 µM; IC50 (WM983b cells [5]; 24 h exposure, read-out: IC50 WM983b cells 24 h): 18 µM; IC50 (WM983b cells [5]; 48 h exposure, read-out: IC50 WM983b cells 48 h): 6.1 µM |
| COc1cc(/C=C/C(=O)CC(=O)/C=C/c2ccc(O)c(OC)c2)ccc1O [Curcumin, curcumin] | 9 | 11.7 | 26 | 7.2 | 9.3 | 10.7 | 11.5 | 11 | 15.5 | < 30 | IC50 (MET1 cells [1]; Homo sapiens, MET-1, light or radiation study, MET1 cells, 640, 583, 457 and 254 nm, 2.5 J/cm², read-out: IC50 values under irradiation (all wavelengths together)): < 11.5 µM; IC50 (MET1 cells [1]; [10]): < 20 µM |
